Measurements taken from patent US11905278B1, “6-(6-bromo-2-oxo-2H-chromen-3-yl)-4-(2-chlorophenyl)-2-alkoxynicotinonitrile as an antimicrobial compound” (KING FAISAL UNIVERSITY, priority 2023, dated 2024).

How the values were obtained:
Format in all cases: cell-based
Escherichia coli = assay: Agar plate disc-diffusion, antibacterial activity by inhibition zone
Procedure: (§1) The agar plate disc-diffusion method was applied. Sterilized filter papers (6 mm in diameter) were wetted with 10 μL of a solution of compounds 6-(6-bromo-2-oxo-2H-chromen-3-yl)-4-(2-chlorophenyl)-2-ethoxynicotinonitrile 1 or 6-(6-bromo-2-oxo-2H-chromen-3-yl)-4-(2-chlorophenyl)-2-methoxynicotinonitrile 2 to be tested, containing […], and the discs were allowed to air dry. The discs were then placed onto the surface of agar plates (nutrient agar for bacteria and Sabouraud's dextrose agar for fungi) seeded with the test organism. Each plate contained 15 mL of the agar medium, previously seeded with 0.2 mL of the broth culture of each organism pregrown for 18 hours. The plates were incubated at 37° C. for 48 hours, and 72 hours for fungi. The inhibition zones were measured in mm. Discs impregnated with DMSO were used as a control, and its inhibition zone was subtracted from the tested compound actual inhibition zone.
(§2) The results of the antimicrobial testing can be observed in Tables 1 and 2, below, using ciprofloxacin as a reference.

Pseudomonas aeruginosa = assay: as above
Procedure: as §1, §2

Bacillus cereus = assay: as above
Procedure: as §1, §2

Staphylococcus aureus = assay: as above
Procedure: as §1, §2

[1] = test system: Chrysosporium keratinophilum; assay: Agar plate disc-diffusion, antifungal activity by inhibition zone
Procedure: as §1, §2

Aspergillus flavus = assay: as above
Procedure: as §1, §2

different microbes = assay: Antimicrobial testing, overall conclusion; conditions: summary of Tables 1 and 2
Procedure: as §1
Their antibacterial activity was screened against gram positive bacteria namely Bacillus cereus and Staphylococcus aureus and gram-negative bacterial strains namely Pseudomonas aeruginosa and Escherichia coli, while their antifungal activity was screened against Aspergillus flavus and Chrysosporium keratinophilum.

[2] = A = concentration of comp. = 10,000 μL
[3] = B = concentration of comp. = 30,000 μL
[4] = C = concentration of comp. = 50,000 μL

Structure (SMILES) | inhibition zone (Escherichia coli; [2]) [mm] | inhibition zone (Escherichia coli; [3]) [mm] | inhibition zone (Escherichia coli; [4]) [mm] | inhibition zone (Pseudomonas aeruginosa; [2]) [mm] | inhibition zone (Pseudomonas aeruginosa; [3]) [mm] | inhibition zone (Pseudomonas aeruginosa; [4]) [mm] | inhibition zone (Bacillus cereus; [2]) [mm] | inhibition zone (Bacillus cereus; [3]) [mm] | inhibition zone (Bacillus cereus; [4]) [mm] | inhibition zone (Staphylococcus aureus; [2]) [mm] | inhibition zone (Staphylococcus aureus; [3]) [mm] | inhibition zone (Staphylococcus aureus; [4]) [mm] | inhibition zone [1, 2] [mm] | inhibition zone [1, 3] [mm] | inhibition zone [1, 4] [mm] | inhibition zone (Aspergillus flavus; [2]) [mm] | inhibition zone (Aspergillus flavus; [3]) [mm] | inhibition zone (Aspergillus flavus; [4]) [mm] | antimicrobial activities (different microbes)
O=C(O)c1cn(C2CC2)c2cc(N3CCNCC3)c(F)cc2c1=O [Cip., ciprofloxacin, reference compound] | 30 | 39 | 60 | 29 | 30 | 53 | 29 | 30 | 42 | 43 | 44 | 53 | 29 | 30 | 53 | 29 | 30 | 42 | 
CCOc1nc(-c2cc3cc(Br)ccc3oc2=O)cc(-c2ccccc2Cl)c1C#N [Compound 1, 6-(6-bromo-2-oxo-2H-chromen-3-yl)-4-(2-chlorophenyl)-2-ethoxynicotinonitrile] | 27 | 38 | 49 | 26 | 30 | 40 | 26 | 29 | 39 | 17 | 20 | 36 | 26 | 27 | 38 | 19 | 21 | 29 | high antimicrobial activities
COc1nc(-c2cc3cc(Br)ccc3oc2=O)cc(-c2ccccc2Cl)c1C#N [Compound 2, 6-(6-bromo-2-oxo-2H-chromen-3-yl)-4-(2-chlorophenyl)-2-methoxynicotinonitrile] | 27 | 35 | 46 | 26 | 33 | 39 | 25 | 30 | 39 | 16 | 24 | 32 | 22 | 28 | 41 | 25 | 28 | 39 | high antimicrobial activities
